18 compounds from patent publication US20070015937A1, “PROCESS FOR RECOVERY OF FLUORINATED CARBOXYLIC ACID SURFACTANTS FROM EXHAUST GAS” (priority 2005, published 2007) can be followed below.

Marks after values point to notes of the source that are not given here.

The data set is described as follows: Determination of bio-accumulation: urinary clearance pharmacokinetic study in rats. Particulars: oral gavage; for Compound-related Effects: clinical signs of toxicity and gross necropsy at 96 hours post-dose.
Where [1] appears, read: recovery of administered amount in urine after 96 h, 73 micro Moles per kg body weight, N=3.
The mark [2] stands for this setting: renal half-life, 73 micro Moles per kg body weight, N=3, urine by fluorine NMR, exponential least squares curve fitting.
[3] abbreviates: no parent compound observed in the urine, based on elimination of the major metabolite C3F7—O—CHFCOO−, 73 micro Moles per kg.

Take `N.O=C(O)C(F)(F)OC(F)(F)C(F)(F)C(F)(F)F` [Compound 5, C3F7—O—CF2—COONH4]: the “% Recovery (96 h)” value under setting [1] stood at 97%. Further, the “T½” value under setting [2] is on record as 11 h.

`N.O=C(O)C(F)(F)OC(F)(F)C(F)(F)C(F)(F)OC(F)(F)F` [Compound 4, CF3—(OCF2)3—OCF2—COONH4]: under setting [1], the “% Recovery (96 h)” value is given as 50%.

Turning to `N.O=C(O)C(F)(F)OC(F)(F)OC(F)(F)F` [Compound 2, CF3—OCF2—O—CF2—COONH4], under setting [1], the “% Recovery (96 h)” value is reported as 96%. Moreover, the “T½” value under setting [2] came out at 12 h.

Regarding `N.O=C(O)C(F)(F)C(F)(F)OC(F)(F)F` [Compound 6, CF3—O—CF2—CF2—COONH4], the “% Recovery (96 h)” value under setting [1] amounted to 100%. For the same compound, the “T½” value under setting [2] came to 11 h.

As to “CF3CF2CF2OCF(CF3)CF2OCF2COONH4 [Compound C-3, reference compound]”, the “Compound-related Effects” value (73 micro Moles per kg) is listed as “Hepatomegaly”. Further, the “% Recovery (96 h)” value under setting [1] was 5%. Further, the “T½” value under setting [2] came out at 95 h.

As to `N.O=C(O)C(F)(F)C(F)(F)OC(F)(F)C(F)(F)C(F)(F)C(F)(F)F` [Compound 9, C4F9—O—CF2—CF2—COONH4], under “73 micro Moles per kg”, the “Compound-related Effects” value was “Hepatomegaly”. Also, the “% Recovery (96 h)” value under setting [1] was determined as 42%. The “T½” value under setting [2] is 31 h.

Consider `N.O=C(O)C(F)(F)C(F)(F)OC(F)(F)C(F)(F)F` [Compound 7, C2F5—O—CF2—CF2—COONH4], for which, under setting [1], the “% Recovery (96 h)” value is 100%. The “T½” value under setting [2] came out at 10 h.

Regarding `N.O=C(O)C(F)(F)OC(F)(F)OC(F)(F)OC(F)(F)F` [Compound 3, CF3—OCF2—OCF2—OCF2—COONH4], the “% Recovery (96 h)” value under setting [1] was found to be 100%. Moreover, under setting [2], the “T½” value amounted to 12 h.

Take `N.O=C(O)C(F)(F)C(F)(F)C(F)(F)C(F)(F)C(F)(F)C(F)(F)C(F)(F)F` [Compound C-1, C7F15COONH4, reference compound]: the “Compound-related Effects” value (73 micro Moles per kg) was “Hepatomegaly”. Besides, under setting [1], the “% Recovery (96 h)” value is on record as 6%. For the same compound, the “T½ (h)” value under setting [2] is given as “˜550 h”.

For `N.O=C(O)C(F)(F)C(F)OC(F)(F)C(F)(F)C(F)(F)OC(F)(F)F` (centres unmarked) [Compound 11, CF3—O—CF2—CF2—CF2—O—CHF—CF2—COONH4], the “% Recovery (96 h)” value under setting [1] amounted to 84%. The “T½” value under setting [2] is 12 h.

With `N.O=C(O)C(F)(F)OC(F)(F)C(F)(F)C(F)(F)OC(F)(F)F` [Compound 1, CF3—O—(CF2)3—O—CF2—COONH4], the “% Recovery (96 h)” value under setting [1] was found to be 73%.

On to `N.O=C(O)C(F)OC(F)(F)C(F)(F)C(F)(F)OC(F)(F)F` (centres unmarked) [Compound 12, CF3—O—CF2—CF2—CF2—O—CHF—COONH4], for which the “% Recovery (96 h)” value under setting [1] was found to be 95%. The “T½” value under setting [2] is 11 h.

As to `N.O=C(O)C(F)(F)C(F)OC(F)(F)C(F)(F)C(F)(F)F` (centres unmarked) [Compound 13, C3F7—O—CFH—CF2COONH4], the “% Recovery (96 h)” value under setting [1] was found to be 94%. Further, under setting [2], the “T½” value came out at 11 h.

In the case of `N.O=C(O)C(F)(F)OC(F)(F)C(F)(F)OC(F)(F)C(F)(F)F` [Compound 10, C2F5—O—CF2—CF2—O—CF2—COONH4], the “% Recovery (96 h)” value under setting [1] was 99%. Further, under setting [2], the “T½” value was found to be 10 h.

As to `N.O=C(O)C(F)(F)C(F)(F)OC(F)(F)C(F)(F)C(F)(F)F` [Compound 8, C3F7—O—CF2—CF2—COONH4], the “% Recovery (96 h)” value under setting [1] is given as 82%. In addition, under setting [2], the “T½” value turned out to be 12 h.

With `N.O=C(O)C(F)(F)C(F)(F)C(F)(F)OC(F)C(F)(F)F` (centres unmarked) [Compound 15, CF3—CFH—O—(CF2)3—COONH4], the “% Recovery (96 h)” value under setting [1] turned out to be 95%. For the same compound, the “T½” value under setting [2] is 8 h.

In the case of `N.O=C(O)C(F)(F)C(F)(F)C(F)(F)C(F)(F)C(F)(F)OC(F)C(F)(F)F` (centres unmarked) [Compound 14, CF3—CFH—O—(CF2)5—COONH4], the “Compound-related Effects” value (73 micro Moles per kg) is “Hepatomegaly”. The “% Recovery (96 h)” value under setting [1] was determined as 32%. Under setting [2], the “T½” value is recorded as 24 h.

Turning to `N.O=C(O)COC(F)(F)C(F)OC(F)(F)C(F)(F)C(F)(F)F` (centres unmarked) [Compound 16, C3F7—O—CFH—CF2—O—CH2—COONH4], under setting [3], the “% Recovery (96 h)” value was 65* % and the “T½ (h)” value is 13* h.
